Like-named read-outs stand apart in the source and are kept apart here.

Experiment [1] deals with 3T3-L1 cells. Briefly: Induction of adipocyte differentiation (amount of triglyceride biosynthesis). The following applies: Mus musculus. The experiment is classed as cell-based. The procedure:
Induction of adipocyte differentiation was carried out by partially modifying the above-mentioned method of Rubin C. S. et al. In addition, as a test compound, a compound prepared in Examples mentioned above or a commercially available compound was used. 3T3-L1 cells (ATCC CCL-92.1) were suspended in a 10% fetal bovine serum (manufactured by Bio Whittaker)-containing Dulbecco's modified Eagle's medium (manufactured by Sigma, D6046) containing 200 μM ascorbic acid so as to have a density of 4×10^3 cells/mL, and the suspension was put in each well of a 12-well microtiter plate in an amount of 2 ml per well. The cells were cultured at 37° C. for 7 days in the presence of 5% carbon dioxide gas. On the seventh day, the medium was exchanged with a 10% fetal bovine serum (manufactured by Bio Whittaker)-containing Dulbecco's modified Eagle's medium containing 200 μM ascorbic acid and 0.25 μM dexamethasone, and a test compound dissolved in dimethyl sulfoxide in a concentration shown in each of Tables 16 to 19 was added to each well. Here, there were set a group with addition of 4 μL of an aqueous solution containing 5 mg/mL insulin (manufactured by TAKARA BIO INC.) as a positive control, and a group with addition of dimethyl sulfoxide as a negative control. After 45 hours, the medium was exchanged with a 10% fetal bovine serum-containing Dulbecco's modified Eagle's medium containing 200 μM ascorbic acid. A test compound, 2 μL of an aqueous solution containing 5 mg/mL insulin as a positive control, or dimethyl sulfoxide as a negative control was put to each well in the same concentration. The cells were cultured for additional 7 days. In addition, the medium was exchanged on after 2 days and after 5 days, and at that time, a test compound, 2 μL of an aqueous solution containing 5 mg/mL insulin as a positive control, or dimethyl sulfoxide as a negative control was put to each well in the same concentration.
The amount of triglyceride in the adipocytes was determined as an index of induction of differentiation into mature adipocytes, and also, as the evaluation of insulin-mimetic action.
After the termination of the culture, the medium was removed, and the cells were washed twice with a phosphate buffered saline. One milliliter of a solvent of hexane:isopropanol=3:2 was added to the cells. The mixture was allowed to stand at room temperature for 30 minutes, and thereafter the supernatant was collected. The procedures were repeated again, and 2 mL of the supernatant was concentrated to dryness. The precipitate was dissolved in 100 μL of isopropanol, and the amount of triglyceride contained in 10 μL of the solution was determined using a triglyceride E-test (manufactured by Wako Pure Chemical Industries, Ltd., code 432-40201). In addition, all the determinations were carried out twice. The action for induction of differentiation was calculated by the following calculation formula, and shown by four ranks of +++, ++, + and +/−. • S: Amount of triglyceride in the presence of a test compound; • N: Amount of triglyceride in the negative control; and • P: Amount of triglyceride in the positive control; X=(S−N)/(P−N) (Judgment of Action for Induction of Differentiation)

For experiment [2], the system named is mature adipocytes (3T3-L1 cells). Briefly: Enhancing action on glucose uptake (2-deoxyglucose) into mature adipocytes. In kind it is cell-based. As to conditions: Mus musculus, 3T3-L1, X=(S−N)/(P−N) of 2-deoxyglucose uptake, P=insulin 1 μg/mL, read-out: Enhancing Action on Glucose Uptake. The procedure: The induction of differentation into nature adipocytes was carried out by partially modifying the above-mentioned method of Rubin C. S. et al. 3T3-L1 cells (ATCC CCL-92.1) were suspended in a 10% fetal bovine serum (manufactured by Bio Whittaker)-containing Dulbecco's modified Eagle's medium (manufactured by Sigma, D6046) containing 200 μM ascorbic acid so as to have a density of 4×10^3 cells/mL, and the suspension was put in each well of a collagen type I-coated 12-well plate (Iwaki Glass Co., Ltd., code 4815-010) in an amount of 2 mL per well. The cells were cultured at 37° C. for 7 days in the presence of 5% carbon dioxide gas. On the seventh day, the medium was exchanged with 2 mL of a 10% fetal bovine serum (manufactured by Bio Whittaker)-containing Dulbecco's modified Eagle's medium containing 200 μM ascorbic acid, 0.25 μM dexamethasone, 10 μg/mL insulin (manufactured by TAKARA BIO INC.) and 0.5 mM 3-isobutyl-1-methylxanthine (manufactured by nacalai tesque, 19624-86). After 45 hours, the medium was exchanged with 2 mL of a 10% fetal bovine serum-containing Dulbecco's modified Eagle's medium containing 200 μM ascorbic acid and 5 μg/mL insulin. The medium was exchanged on after 2 days and 5 days, and the cells were cultured for 7 days, to give mature adipocytes.
As the evaluation of the enhancing action on glucose uptake, and also as the evaluation of the insulin-mimetic action, the amount of 2-deoxyglucose uptake into mature adipocytes during the stimulation of the test compound in the adipocytes was determined. As a test compound, a compound prepared in the Examples mentioned above or a commercially available compound was used.
After the termination of the culture, the medium was removed, and the cells were washed twice with a 0.1% (w/v) bovine serum albumin (manufactured by Sigma, A8022)-containing Dulbecco's modified Eagle's medium. Thereafter, 1 mL of the same medium containing a test compound in a concentration shown in each of Tables 20 to 23 was put to each well. The cells were cultured overnight at 37° C. in the presence of 5% carbon dioxide gas. Here, a group without containing the test compound was set as a negative control. After the overnight culture, the cells were washed twice with a HEPES buffer (140 mM NaCl, 5 mM KCl, 2.5 mM MgSO4, 1 mM CaCl2, 20 mM HEPES-Na (pH 7.4)). The amount 0.9 mL of the buffer containing a test compound in the same concentration was added to each well. The cells were cultured at 37° C. for 75 minutes. During the culture, as a positive control, there was set a group with addition of insulin to the well without addition of a test compound at a point 45 minutes passed so as to have a final concentration of 1 μg/mL. Thereafter, 100 μL of a HEPES buffer containing 0.5 μCi/mL 2-deoxy-[1,2-^3H(N)]-glucose (manufactured by PerkinElmer Life Sciences Inc., NET549A) and 1 mM 2-deoxyglucose (manufactured by nacalai tesque, 10722-11) was added thereto. The cells were cultured at 37° C. for additional 10 minutes. After the termination of the culture, the supernatant was removed, and the cells were washed three times with a phosphate buffer cooled to 4° C. Thereafter, 0.5 mL of a 1% Nonidet P-40-containing phosphate buffer was added to lyse the cells, whereby 2-deoxy-[1,2-^3H(N)]-glucose subjected to uptake into the cells was eluted. The radioactivity was determined with a liquid scintillation counter LS6500 (manufactured by Beckmann) using 25 μL of the supernatant with Ultima Gold (manufactured by PerkinElmer Life Sciences Inc., 6013329) as a scintillation cocktail. The enhancing action on glucose uptake was calculated by the following calculation formula, and shown by four ranks of +++, ++, + and +/−. • S: Amount of 2-deoxyglucose uptake in the presence of a test compound; • N: Amount of 2-deoxyglucose uptake in the negative control; and • P: Amount of 2-deoxyglucose uptake in the positive control; X=(S−N)/(P−N) (Judgment of Enhancing Action for 2-Deoxyglucose Uptake)

Where [3] appears, read: 3T3-L1, X=(S−N)/(P−N) of amount of triglyceride, P=insulin positive control, read-out: Action for Induction of Differentiation.
Where [4] appears, read: 3T3-L1, read-out: Action for Induction of Differentiation.

As for `COc1ccc(C(=O)/C=C/c2ccc(O)cc2)c2c1CC(C(C)(C)O)O2` (stereo not shown) [TB4, 1-[2,3-dihydro-2-(1-hydroxy-1-methylethyl)-4-methoxy-benzofuran-7-yl]-3-(4-hydroxyphenyl)-2-propen-1-one], in experiment [1] (setting [3]), the activation at 3 µM fell in the range of 30 to 60% and the activation at 10 µM lay in the range of 30 to 60%.

`COc1ccc(C(=O)/C=C/c2ccc(O)cc2)c(O)c1C/C=C(\C)C/C=C/C(C)(C)O` [Compound (C081), 1-[2-hydroxy-3-(7-hydroxy-3,7-dimethyl-2,5-octadienyl)-4-methoxyphenyl]-3-(4-hydroxyphenyl)-2-propen-1-one]: in experiment [1] (setting [3]), the activation at 3 µM lay within 60 to 100%, the activation at 10 µM is more than 100% and the activation at 30 µM was more than 100%.

Take `COc1ccc(C(=O)/C=C/C=C(C)C)c(O)c1CC=C(C)C` [Compound (C069), 1-(2-hydroxy-3-prenyl-4-methoxyphenyl)-5-methyl-2,4-hexadien-1-one]: in experiment [1] (setting [3]), the activation at 3 µM was 30 to 60%, the activation at 10 µM was more than 100% and the activation at 30 µM was more than 100%.

Turning to `C=C(C)C(O)CC/C(C)=C/Cc1c(OC)ccc(C(=O)/C=C/c2ccc(O)cc2)c1O` (stereo not shown) [Xanthoangelol G], in experiment [1] (setting [3]), the activation at 3 µM fell in the range of 30 to 60%, the activation at 10 µM is more than 100% and the activation at 30 µM was more than 100%.

Turning to `CC(=O)c1ccc(O)c(C/C=C(\C)CC/C=C(\C)CCC=C(C)C)c1O` [Compound (C051), 2′,4′-dihydroxy-3′-farnesylacetophenone], the activation at 30 µM in experiment [1] (setting [3]) is 60 to 100%.

With `CC(=O)c1ccc(O)c(Cc2ccccc2)c1O` [Compound (C054), 2′,4′-dihydroxy-3′-benzylacetophenone], in experiment [1] (setting [3]), the activation at 3 µM fell in the range of 15 to 30% and the activation at 10 µM was 30 to 60%.

`COc1c2occc2cc2ccc(=O)oc12` [Xanthotoxin]: in experiment [1] (setting [4]), the activation at 13 µM fell in the range of 30 to 60% and the activation at 40 µM fell in the range of 60 to 100%.

For the compound `CC12CCC(O)C(C)(C)C1Cc1c(O)ccc(C(=O)/C=C/c3ccc(O)cc3)c1O2` (stereo not shown) [TB1, 1-(5,6,7,8,8a,10a-hexahydro-1,7-dihydroxy-8,8,10a-trimethyl-9H-xanthen-4-yl)-3-(4-hydroxyphenyl)-2-propen-1-one], in experiment [1] (setting [3]), the activation at 3 µM is more than 100% and the activation at 10 µM was 60 to 100%.

In the case of `CC(=O)c1ccc(OCc2ccccc2)c(C/C=C(\C)CCC=C(C)C)c1O` [Compound (C070), 2′-hydroxy-3′-geranyl-4′-benzyloxyacetophenone], in experiment [1] (setting [3]), the activation at 10 µM was in the range of 30 to 60% and the activation at 30 µM was 60 to 100%.

On to `COc1ccc2c(c1CC=C(C)C)OC(c1ccc(O)cc1)CC2=O` (stereo not shown) [Compound (C034), 7-methoxy-8-prenyl-4′-hydroxyflavanone], for which, in experiment [1] (setting [3]), the activation at 3 µM was more than 100% and the activation at 10 µM is more than 100%.

As to `CC(C)=CCC/C(C)=C/COc1ccc([C@@H]2CC(=O)c3c(O)cc(O)cc3O2)cc1` [4′-O-Geranylnaringenin], in experiment [1] (setting [3]), the activation at 3 µM was 30 to 60%, the activation at 10 µM is 60 to 100% and the activation at 30 µM was more than 100%.

In the case of `COc1ccc(C(C)=O)c(O)c1C` [Compound (C022), 2′-hydroxy-3′-methyl-4′-methoxyacetophenone], the activation at 13 µM in experiment [1] (3T3-L1, 13 μM, X=(S−N)/(P−N) of amount of triglyceride, P=insulin positive control, read-out: Action for Induction of Differentiation) is 15 to 30%.

Take `COc1ccc(C(=O)/C=C/c2ccc(O)cc2)c(O)c1CCC(C)C` [Compound (C043), 4,2′-dihydroxy-3′-(3-methylbutyl)-4′-methoxychalcone]: in experiment [2], the activation at 3 µM fell in the range of 15 to 30% and the activation at 10 µM was more than 100%.

Turning to `COc1ccc2c(c1CC=C(C)C)OC(c1ccco1)C(=Cc1ccco1)C2=O` (stereo not shown) [Compound (FUR-2), 2-(2-furyl)-3-(2-furylmethylene)-2,3-dihydro-7-methoxy-8-prenyl-4H-1-benzopyran-4-one], in experiment [2], the activation at 3 µM is 15 to 30%, the activation at 10 µM was in the range of 30 to 60% and the activation at 30 µM is 30 to 60%.

As for `O=C(/C=C/c1ccc(O)c(O)c1)c1ccccc1O` [Compound (C005), 3,4,2′-trihydroxychalcone], in experiment [2], the activation at 10 µM lay in the range of 30 to 60% and the activation at 30 µM was 30 to 60%.

Consider `COc1ccc(C(=O)/C=C/c2ccc(O)c(O)c2)c(O)c1CC=C(C)C` [Compound (C031), 3,4,2′-trihydroxy-3′-prenyl-4′-methoxychalcone], for which, in experiment [2], the activation at 10 µM was in the range of 15 to 30% and the activation at 30 µM is more than 100%.

`COc1ccc(C(=O)/C=C/c2ccc(OC3CCCCO3)cc2)c(O)c1CC=C(C)C` (stereo not shown) [Compound (C030), 4-tetrahydropyranyloxy-2′-hydroxy-3′-prenyl-4′-methoxychalcone]: in experiment [2], the activation at 10 µM lay in the range of 30 to 60% and the activation at 30 µM was more than 100%.

For the origin of these results see patent publication US20070092551A1, “Therapeutic agent” (TAKARA BIO INC., priority 2003, published 2007).
